Reference: PMC6118295 (CPT: Pharmacometrics & Systems Pharmacology, 2018)
pIC50: −log10 of the molar value.

Molecular target: T1, Recombinant human CES1 (CES1b/CES1A1) (Homo sapiens, UniProt P23141)
T1 sequence (P23141 18-567): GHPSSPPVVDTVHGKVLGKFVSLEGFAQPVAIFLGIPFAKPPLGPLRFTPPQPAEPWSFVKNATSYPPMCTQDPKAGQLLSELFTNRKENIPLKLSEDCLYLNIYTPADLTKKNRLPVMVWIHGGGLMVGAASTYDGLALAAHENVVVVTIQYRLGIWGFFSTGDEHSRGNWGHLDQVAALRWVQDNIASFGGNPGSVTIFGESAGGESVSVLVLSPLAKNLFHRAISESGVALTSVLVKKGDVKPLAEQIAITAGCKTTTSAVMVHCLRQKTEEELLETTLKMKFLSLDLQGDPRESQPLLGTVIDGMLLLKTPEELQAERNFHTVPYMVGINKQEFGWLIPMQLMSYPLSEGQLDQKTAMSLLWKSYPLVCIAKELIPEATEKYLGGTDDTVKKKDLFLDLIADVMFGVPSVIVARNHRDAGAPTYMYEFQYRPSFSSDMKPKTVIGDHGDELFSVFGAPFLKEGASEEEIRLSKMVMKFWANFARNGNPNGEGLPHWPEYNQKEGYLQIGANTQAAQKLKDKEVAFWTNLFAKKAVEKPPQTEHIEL
Assay: In vitro inhibition of recombinant CES1
Type: biochemical
Conditions: for IC50 relative to diltiazem: recombinant CES1, fold higher than IC50 of diltiazem

Row | pIC50 | IC50 relative to diltiazem | SMILES
1 | 4.87 | – | C[C@H](CCC(=O)O)[C@H]1CC[C@H]2[C@@H]3[C@H](O)C[C@@H]4C[C@H](O)CC[C@]4(C)[C@H]3CC[C@]12C [Chenodeoxycholic acid]
2 | – | ~10 fold | C[C@H](CCC(=O)NCC(=O)O)[C@H]1CC[C@H]2[C@@H]3[C@H](O)C[C@@H]4C[C@H](O)CC[C@]4(C)[C@H]3CC[C@]12C [Glycochenodeoxycholic acid]
3 | 4.71 | – | C[C@H](CCC(=O)NCCS(=O)(=O)O)[C@H]1CC[C@H]2[C@@H]3[C@H](O)C[C@@H]4C[C@H](O)CC[C@]4(C)[C@H]3C[C@H](O)[C@]12C [Taurocholic acid]
4 | – | more than fourfold higher | C[C@H](CCC(=O)NCCS(=O)(=O)O)[C@H]1CC[C@H]2[C@@H]3[C@H](O)C[C@@H]4C[C@H](O)CC[C@]4(C)[C@H]3CC[C@]12C [Taurochenodeoxycholic acid]
